Results on 24 compounds are retold here after PubChem BioAssay (NCI).

SMILES strings stand for the structures.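 Exposure lasted 48 hours, with cells grown in 96-well plates and compounds tested at five concentrations. TGI denotes the concentration required for complete inhibition of growth.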

Some test systems named below: DMS 273 small cell lung; HOP-92 NSCLC; KM20L2 colon; LXFL 529 NSCLC; SF-295 CNS; MOLT-4 leukemia; DMS 114 small cell lung; HOP-18 NSCLC; UACC-257 melanoma; SNB-78 CNS; DLD-1 colon; M19-MEL melanoma; RXF-631 renal; XF 498 CNS.
What all share (assay): inhibition of tumour cell growth, NCI panel, 48 h

`C/C(=C(/C)c1cc[n+](C)cc1)c1cc[n+](C)cc1`: the TGI in the assay with DMS 273 small cell lung, in the assay with HOP-92 NSCLC, in the assay on KM20L2 colon, in the assay with LXFL 529 NSCLC, with SF-295 CNS and in the assay with MOLT-4 leukemia was greater than 75 µM throughout. Further, the TGI with DMS 114 small cell lung is 50.3 µM; in the assay with HOP-18 NSCLC, greater than 75 µM; in the assay on UACC-257 melanoma it was greater than 75 µM; in the assay with SNB-78 CNS it was greater than 75 µM; in the assay with DLD-1 colon it was greater than 75 µM.

`O=C(Nc1ccccc1[N+](=O)[O-])C(=O)C(C(=O)c1ccccc1-c1ccccc1)C1OC(=O)c2ccccc21` (configuration not stated): the TGI amounted to 38.5 µM in the assay with DMS 273 small cell lung; 27.5 µM in the assay with M19-MEL melanoma; 34.9 µM with KM20L2 colon; 23 µM with LXFL 529 NSCLC; 39.3 µM in the assay with SF-295 CNS; 85.4 µM with MOLT-4 leukemia. Also, the TGI in the assay with DMS 114 small cell lung was 31.7 µM; in the assay with HOP-18 NSCLC, 31.6 µM; in the assay with UACC-257 melanoma, 33 µM; in the assay on SNB-78 CNS, greater than 100 µM; in the assay on RXF-631 renal it was 35.3 µM; in the assay with DLD-1 colon, 44.8 µM.

With `COc1ccc(-c2cc(=O)c3ccc(F)cc3[nH]2)cc1`, the TGI with XF 498 CNS, with HOP-92 NSCLC, in the assay with M19-MEL melanoma, in the assay on KM20L2 colon, in the assay with LXFL 529 NSCLC and with SF-295 CNS was greater than 100 µM in each case. The TGI in the assay with MOLT-4 leukemia, in the assay on DMS 114 small cell lung, in the assay with HOP-18 NSCLC, in the assay with UACC-257 melanoma, in the assay with SNB-78 CNS and in the assay with RXF-631 renal was greater than 100 µM in each case. The compound also showed a TGI in the assay with DLD-1 colon greater than 100 µM.

Take `O=c1[nH]cc(COCC(O)CO)c(=O)[nH]1` (configuration not stated): the TGI with DMS 273 small cell lung, in the assay with XF 498 CNS, in the assay on HOP-92 NSCLC, with M19-MEL melanoma, in the assay with KM20L2 colon and with LXFL 529 NSCLC was greater than 100 µM throughout. The TGI with SF-295 CNS, in the assay on MOLT-4 leukemia, with DMS 114 small cell lung, in the assay on HOP-18 NSCLC, in the assay on UACC-257 melanoma and with SNB-78 CNS was greater than 100 µM throughout. Further, the TGI in the assay on RXF-631 renal and in the assay with DLD-1 colon was greater than 100 µM throughout.

Consider `COc1cc(/C=C2\C(=O)N(c3ccc(NC(C)=O)cc3)C(c3ccccc3)S2(=O)=O)cc(OC)c1OC` (configuration not stated), for which the TGI in the assay with HOP-92 NSCLC, in the assay on SF-295 CNS, in the assay with MOLT-4 leukemia and with UACC-257 melanoma was greater than 100 µM throughout.

In the case of `Cc1ccc(S(=O)(=O)OI(O)CC(F)(F)F)cc1`, the TGI in the assay with HOP-92 NSCLC, in the assay on SF-295 CNS, in the assay with MOLT-4 leukemia and in the assay on UACC-257 melanoma was greater than 100 µM throughout.

As to `CC1(C)CC2C(/C1=N/O)C1(C)CCCC2(C)C1O` (configuration not stated), the TGI with HOP-92 NSCLC, in the assay on SF-295 CNS, in the assay on MOLT-4 leukemia and with UACC-257 melanoma was greater than 100 µM throughout.

As to `O=C(NN1C(=O)C(Cl)C1c1cccc(Cl)c1)c1ccccc1O` (configuration not stated), the TGI in the assay with DMS 273 small cell lung is greater than 100 µM; with XF 498 CNS it was 86.7 µM; with M19-MEL melanoma it was greater than 100 µM; in the assay with LXFL 529 NSCLC it was greater than 100 µM; in the assay on SF-295 CNS it was greater than 100 µM; in the assay with MOLT-4 leukemia, greater than 100 µM. The TGI is 80.7 µM in the assay on HOP-18 NSCLC, greater than 100 µM with UACC-257 melanoma and greater than 100 µM with SNB-78 CNS.

For the compound `CCOC(=O)C(C)c1nc2cc(C(F)(F)F)ccc2[nH]c1=O` (configuration not stated), the TGI with HOP-92 NSCLC, in the assay with SF-295 CNS, in the assay on MOLT-4 leukemia and in the assay with UACC-257 melanoma was greater than 100 µM throughout.

Take `N#CCCN(CCCN(C(=O)Nc1ccc(NC(=O)N(CCCN(CCC#N)C(N)=O)c2ccccc2)cc1)c1ccccc1)C(N)=O`: the TGI in the assay on HOP-92 NSCLC, in the assay with SF-295 CNS, in the assay with MOLT-4 leukemia and in the assay with UACC-257 melanoma was greater than 100 µM in each case.

For `N#Cc1nc(-c2ccc(-c3nc(C#N)c(N)o3)cc2)oc1N`, the TGI in the assay with HOP-92 NSCLC, in the assay on SF-295 CNS, in the assay with MOLT-4 leukemia and in the assay on UACC-257 melanoma was greater than 10 µM in each case.

As to `COC(=O)C1Cc2c([nH]c3ccccc23)-c2[nH]c3ccccc3c2CC(NC(C)=O)C(=O)NCC(=O)NCC(=O)N1` (configuration not stated), the TGI in the assay with HOP-92 NSCLC, in the assay with SF-295 CNS, with MOLT-4 leukemia and with UACC-257 melanoma was greater than 100 µM in each case.

As for `C/C(CC(=O)Nc1ccccc1)=N\NC(N)=S`, the TGI in the assay with DMS 273 small cell lung, in the assay with XF 498 CNS, in the assay on HOP-92 NSCLC, with M19-MEL melanoma, in the assay with KM20L2 colon and in the assay on LXFL 529 NSCLC was greater than 100 µM throughout. In addition, the TGI in the assay on SF-295 CNS, with MOLT-4 leukemia, in the assay on DMS 114 small cell lung, with UACC-257 melanoma, in the assay with SNB-78 CNS and in the assay with DLD-1 colon was greater than 100 µM each time.

Turning to `CC(=O)OC1CC2C(C)(C)OC(=O)CC(OC(C)=O)[C@]2(C)C2CCC3(C)C(=CCC3c3ccoc3)[C@]12C` (some centres not stated), the TGI in the assay on DMS 273 small cell lung is 41.1 µM; in the assay with XF 498 CNS it was 36 µM; in the assay with HOP-92 NSCLC, 29.9 µM; in the assay with M19-MEL melanoma it was 52.3 µM; in the assay with KM20L2 colon, greater than 100 µM; with LXFL 529 NSCLC, greater than 100 µM. For the same compound, the TGI is 98.3 µM with SF-295 CNS; 52 µM in the assay on MOLT-4 leukemia; 96.4 µM with DMS 114 small cell lung; greater than 100 µM in the assay with SNB-78 CNS; 31.3 µM with DLD-1 colon.

Take `CN(C)c1cccc(/C=C(\C#N)c2ccccc2)c1`: the TGI in the assay on HOP-92 NSCLC is 39.1 µM; in the assay with SF-295 CNS, 15.1 µM; in the assay on MOLT-4 leukemia, greater than 21.1 µM; in the assay on UACC-257 melanoma it was greater than 71.7 µM.

Regarding `COC(=O)C1=C(C(=O)OC)C(OO)(c2ccccc2)OC1=O` (configuration not stated), the TGI in the assay with HOP-92 NSCLC, in the assay on SF-295 CNS, in the assay on MOLT-4 leukemia and with UACC-257 melanoma was greater than 100 µM throughout.

With `OCCSCC/C(=N\N=C(/CCSCCO)c1ccccc1)c1ccccc1`, the TGI in the assay on XF 498 CNS, with HOP-92 NSCLC, in the assay with M19-MEL melanoma, with KM20L2 colon, with LXFL 529 NSCLC and in the assay on SF-295 CNS was greater than 100 µM in each case. Besides, the TGI with MOLT-4 leukemia, in the assay with DMS 114 small cell lung, in the assay with HOP-18 NSCLC, in the assay on UACC-257 melanoma, with SNB-78 CNS and in the assay with RXF-631 renal was greater than 100 µM in each case. In addition, in the assay on DLD-1 colon, the TGI was greater than 100 µM.

As to `O=C(/N=C1/OC(CN2CCOCC2)CN1C(=O)Nc1ccccc1)Nc1ccccc1` (configuration not stated), the TGI in the assay on HOP-92 NSCLC, in the assay with SF-295 CNS, in the assay with MOLT-4 leukemia and with UACC-257 melanoma was greater than 100 µM throughout.

On to `Oc1ccc2ccccc2c1NCn1nc(CCCCCCCCc2nn(CNc3c(O)ccc4ccccc34)c(=S)o2)oc1=S`, for which the TGI with HOP-92 NSCLC, in the assay with SF-295 CNS, in the assay on MOLT-4 leukemia and with UACC-257 melanoma was greater than 100 µM throughout.

Take `CN1C(=O)C(C#N)C2C[C@@]1(C)Oc1ccccc12` (some centres not stated): the TGI in the assay on HOP-92 NSCLC, with SF-295 CNS, in the assay with MOLT-4 leukemia and with UACC-257 melanoma was greater than 100 µM each time.

Regarding `CNC(=O)OCc1nc(N=[N+]=[N-])n(C)c1COC(=O)NC`, the TGI with HOP-92 NSCLC was 86.7 µM; in the assay on SF-295 CNS, greater than 100 µM; in the assay with MOLT-4 leukemia it was 88.3 µM; in the assay with UACC-257 melanoma, greater than 100 µM.

As to `C=CCN(N=O)C(=O)N(CCCCC(NC(C)=O)C(=O)NCc1ccccc1)Cc1ccccc1` (configuration not stated), the TGI with DMS 273 small cell lung is greater than 100 µM; in the assay on XF 498 CNS, greater than 100 µM; with HOP-92 NSCLC, 57.3 µM; in the assay on M19-MEL melanoma, greater than 100 µM; with KM20L2 colon, 36.7 µM; in the assay on LXFL 529 NSCLC, greater than 100 µM. Besides, the TGI with SF-295 CNS is greater than 100 µM; with MOLT-4 leukemia it was 45.4 µM; in the assay with DMS 114 small cell lung, 86.4 µM; in the assay on HOP-18 NSCLC, 81.6 µM; in the assay on UACC-257 melanoma, greater than 100 µM; in the assay with RXF-631 renal, greater than 100 µM.

On to `N/N=C(/CC(O)(C(F)(F)F)C(F)(F)F)c1ccccc1`, for which the TGI with HOP-92 NSCLC, in the assay on SF-295 CNS, with MOLT-4 leukemia and in the assay on UACC-257 melanoma was greater than 10 µM each time.

On to `O=C1Nc2ccccc2/C1=N/N1C(=O)/C(=C/c2ccccc2S)N=C1c1ccccc1`, for which the TGI with HOP-92 NSCLC, in the assay with SF-295 CNS, with MOLT-4 leukemia and in the assay with UACC-257 melanoma was greater than 100 µM in each case.
